Like-named read-outs stand apart in the source and are kept apart here. Marks after values point to notes of the source that are not given here.
Tests used:
HCT8 cells = assay: Sulforhodamine B (SRB) anti-proliferation assay, HCT8; type: cell-based; conditions: RAD (20 nM), SN38 (4 nM) or the combination of the two, Figure 2
Description: Cytoxic effects were determined using the sulforhodamine B (SRB) assay. Briefly, 5000 viable cells were plated into 96-well plates and incubated overnight prior to exposure with different concentrations of drugs. Cells were exposed to increasing concentrations of everolimus (0–200 nM), SN38 (0–8 nM), and combinations of the two. Following a 72 hour incubation, media was removed and cells were fixed with cold 10% trichloroacetic acid for 30 minutes at 4° C. Cells were washed with water and stained with 0.4% SRB for 30 minutes at room temperature. Cells were washed again with 1% acetic acid and stain was solubilized with 10 mM tris at room temperature and read at an OD of 565 nm. […] The resulting Combination Index (CI) was used as a quantitative measure of the degree of interaction between different drugs. A CI value equal to 1 denotes additivity; CI greater than 1, antagonism; CI less than 1, synergism.

[1] = Pharmacokinetic study of everolimus in mice bearing HT29 tumors (plasma and tumor, LC/MS/MS); type: in vivo; conditions: for Cmax / Tmax / AUC(0-t) / CL/F / Vd/F / half-life: nude; for CL/F: read-out: CLss/F (converted); for Vd/F: read-out: Vz/F; for half-life: read-out: t½ (converted)
Description: A pharmacokinetic study of everolimus was conducted in mice bearing HT29 tumors (average volume ∼300 mm^3). Mice were treated with either 2.5 or 10 mg/kg everolimus daily for 7 days by oral gavage. Three mice per dose level were sacrificed by cardiac stick exsanguination at 30 minutes, 2, 4, 6 and 24 hours following drug administration on day 7. Plasma and tumor tissue were snap-frozen in liquid N2 and stored at −70°C until analyzed.
Everolimus was measured in plasma and tumors by LC/MS/MS assay. Analytical standards, quality control (QC) and unknowns were all prepared by adding 200 µl of unknown or spiked blank plasma or tumor homogenate (100 mg/ml in water) samples to a 1.5 ml microcentrifuge tube. Samples were extracted by the addition of 1 ml methyl tert-butyl ether (MTBE) followed by 10 min vortex mixing. Samples were centrifuged at 13,000 RPM for 10 min and the supernatant collected and 900 µl transferred to a clean glass test tube. Samples were evaporated to dryness using a rotary evaporator followed by re-suspension in 100 µl of 50% acetonitrile/50% 10 mM ammonium acetate and transferred to auto-sampler vials for analysis. Mass spectra for extracted samples was obtained on a MDS Sciex 3200 Q-TRAP triple quadrupole mass spectrometer (Applied Biosystems, Inc., Foster City, CA) with a turbo ionspray source interfaced to an Agilent 1200 Series Binary Pump SL HPLC system (Santa Clara, CA).The lower and upper limits of quantitation for the assay were 1 and 5000 nM, respectively. Accuracy and precision (% RSD) based on analysis of standards and QC samples for this assay were 90.7% and 5.5% for plasma and 93.0% and 4.2% for tumor. Additional details may be found in Supplement S1 (section SA.1.).
Plasma and tumor pharmacokinetic parameters were calculated by noncompartmental analysis with WinNonlin. Everolimus plasma data was fit to a two-compartment model with first-order absorption and simulations of plasma concentrations at a 5 mg/kg dose of everolimus were performed by SAAM II version 2.1 (The Epsilon Group, Charlottesville, VA/University of Washington).

[2] = Human pharmacokinetics of everolimus from the literature; type: in vivo; conditions: humans at the clinically used doses of 5 to 10 mg per day; 75% plasma protein binding used; from data of ref 25, 26
Description: For in vivo studies, we established doses of everolimus and irinotecan to administer to mice that would yield exposures at or below clinically achievable levels. Human pharmacokinetic information on everolimus, [26] and irinotecan/SN38 [27]–[30] was gathered from the literature and is presented in Tables 1 and 2 respectively.

[3] = 2.5 mg/kg daily oral for 7 days, Mouse, plasma, steady-state
[4] = 10 mg/kg daily oral for 7 days, Mouse, plasma, steady-state
[5] = mouse, po, HT29 tumor, 2.5 mg/kg, mice
[6] = mouse, po, HT29 tumor, 10 mg/kg, mice
[7] = mouse, po, plasma, 2.5 mg/kg, mice, non-compartmental analysis
[8] = mouse, po, plasma, 10 mg/kg, mice, non-compartmental analysis

**Q.** Which “%Growth Inhibition” value (HCT8 cells) does the source give for `CO[C@H]1C[C@@H]2CC[C@@H](C)[C@@](O)(O2)C(=O)C(=O)N2CCCC[C@H]2C(=O)O[C@H]([C@H](C)C[C@@H]2CC[C@@H](OCCO)[C@H](OC)C2)CC(=O)[C@H](C)/C=C(\C)[C@@H](O)[C@@H](OC)C(=O)[C@H](C)C[C@H](C)/C=C/C=C/C=C/1C` [Everolimus, 40-O-(2-hydroxyethyl)-rapamycin] here?
**A.** 59%

**Q.** And the Cmin [1, 3]?
**A.** 12±6 ^b ng/mL

**Q.** And the Cmin [1, 4]?
**A.** 59±5 ^b ng/mL

**Q.** And the “AUCss,free (steady-state free plasma exposure)” value ([1]; 10 mg/kg in mice, 99% plasma protein binding used)?
**A.** 0.116 µg·h/mL

**Q.** What about the Cmax [1, 5] of the same molecule?
**A.** 0.052 µM

**Q.** And the Tmax [1, 5]?
**A.** 0.5 h

**Q.** What about the AUC(0-t) ([1]; mouse, po, HT29 tumor, 2.5 mg/kg, mice, read-out: AUC0→24) of the same molecule?
**A.** 742 nM·h

**Q.** And the Cmax [1, 6]?
**A.** 0.25 µM

**Q.** What about the Tmax [1, 6] of the same molecule?
**A.** 4 h

**Q.** What about the AUC(0-t) ([1]; mouse, po, HT29 tumor, 10 mg/kg, mice, read-out: AUC0→24) of the same molecule?
**A.** 3930 nM·h

**Q.** And the Cmax [1, 7]?
**A.** 0.365 µM

**Q.** And the Tmax [1, 7]?
**A.** 0.5 h

**Q.** What about the AUC(0-t) ([1]; mouse, po, plasma, 2.5 mg/kg, mice, non-compartmental analysis, read-out: AUC0→24) of the same molecule?
**A.** 2000 nM·h

**Q.** What about the CL/F [1, 7] of the same molecule?
**A.** 1.2 L/h/kg

**Q.** And the Vd/F [1, 7]?
**A.** 10.8 L/kg

**Q.** And the Cmax [1, 8]?
**A.** 1.76 µM

**Q.** And the Tmax [1, 8]?
**A.** 0.5 h

**Q.** What about the AUC(0-t) ([1]; mouse, po, plasma, 10 mg/kg, mice, non-compartmental analysis, read-out: AUC0→24) of the same molecule?
**A.** 12100 nM·h

**Q.** What about the CL/F [1, 8] of the same molecule?
**A.** 0.83 L/h/kg

**Q.** What about the Vd/F [1, 8] of the same molecule?
**A.** 6 L/kg

**Q.** What about the Cmax [1, 3] of the same molecule?
**A.** 0.35 ± 0.23 µg/mL

**Q.** And the AUC(0-t) ([1]; 2.5 mg/kg daily oral for 7 days, Mouse, plasma, read-out: AUC0→t)?
**A.** 1.92 µg·h/mL

**Q.** And the half-life ([1]; 2.5 mg/kg daily oral for 7 days, Mouse, plasma)?
**A.** 6 h

**Q.** And the Cmax [1, 4]?
**A.** 1.68 ± 0.277 µg/mL

**Q.** And the AUC(0-t) ([1]; 10 mg/kg daily oral for 7 days, Mouse, plasma, read-out: AUC0→t)?
**A.** 11.6 µg·h/mL

**Q.** And the half-life ([1]; 10 mg/kg daily oral for 7 days, Mouse, plasma)?
**A.** 5 h

**Q.** And the “AUCss,free (steady-state free plasma exposure)” value [2]?
**A.** 0.06 to 0.178 µg·h/mL

From paper PMC3592886, “Utilization of Quantitative In Vivo Pharmacology Approaches to Assess Combination Effects of Everolimus and Irinotecan in Mouse Xenograft Models of Colorectal Cancer” (PLoS ONE, 2013)
